Measurements taken from paper PMC3883354 (Bioorganic & medicinal chemistry, 2013).
Like-named read-outs stand apart in the source and are kept apart here.

Tests used:
human GIVA cPLA2 [1] = biological target: T1, human GIVA cPLA2 (Homo sapiens, UniProt P47712); experiment: mixed micelle-based modified Dole assay, GIVA cPLA2 inhibition; assay type: biochemical; conditions: 0.091 mole fraction inhibitor in mixed micelles; n = 3; listed as GK187
T1 sequence (P47712 1-749): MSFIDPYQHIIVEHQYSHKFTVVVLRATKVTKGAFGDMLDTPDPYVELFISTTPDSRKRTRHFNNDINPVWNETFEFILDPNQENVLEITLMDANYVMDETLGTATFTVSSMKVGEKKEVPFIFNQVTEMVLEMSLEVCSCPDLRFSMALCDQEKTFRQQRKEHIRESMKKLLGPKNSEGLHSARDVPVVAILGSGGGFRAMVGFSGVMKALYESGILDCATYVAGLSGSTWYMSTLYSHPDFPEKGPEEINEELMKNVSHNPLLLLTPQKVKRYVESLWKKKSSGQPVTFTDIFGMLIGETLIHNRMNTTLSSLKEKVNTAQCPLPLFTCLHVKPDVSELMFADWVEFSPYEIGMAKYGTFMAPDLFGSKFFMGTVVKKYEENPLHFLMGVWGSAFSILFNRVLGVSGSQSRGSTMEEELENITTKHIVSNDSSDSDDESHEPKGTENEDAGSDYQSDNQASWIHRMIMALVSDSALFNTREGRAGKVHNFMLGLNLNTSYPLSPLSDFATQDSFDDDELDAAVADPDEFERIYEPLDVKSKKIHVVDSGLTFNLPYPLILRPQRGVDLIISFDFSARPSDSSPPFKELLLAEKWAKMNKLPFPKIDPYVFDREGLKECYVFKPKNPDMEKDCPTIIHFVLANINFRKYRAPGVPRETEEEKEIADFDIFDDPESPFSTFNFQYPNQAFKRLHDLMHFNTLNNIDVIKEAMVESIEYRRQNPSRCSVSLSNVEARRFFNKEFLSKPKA

human GV sPLA2 [2] = biological target: T2, human GV sPLA2 (Homo sapiens, UniProt P39877); experiment: mixed micelle-based modified Dole assay, GV sPLA2 inhibition; assay type: biochemical; conditions: 0.091 mole fraction inhibitor in mixed micelles; n = 3
T2 sequence (P39877 21-138): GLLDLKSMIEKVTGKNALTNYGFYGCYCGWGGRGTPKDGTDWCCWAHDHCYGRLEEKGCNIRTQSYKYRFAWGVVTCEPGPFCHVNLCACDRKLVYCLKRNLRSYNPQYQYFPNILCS

human GVIA iPLA2 = biological target: T3, human GVIA iPLA2 (Homo sapiens, UniProt O60733); conditions: cited from earlier work
T3 sequence (O60733 1-806): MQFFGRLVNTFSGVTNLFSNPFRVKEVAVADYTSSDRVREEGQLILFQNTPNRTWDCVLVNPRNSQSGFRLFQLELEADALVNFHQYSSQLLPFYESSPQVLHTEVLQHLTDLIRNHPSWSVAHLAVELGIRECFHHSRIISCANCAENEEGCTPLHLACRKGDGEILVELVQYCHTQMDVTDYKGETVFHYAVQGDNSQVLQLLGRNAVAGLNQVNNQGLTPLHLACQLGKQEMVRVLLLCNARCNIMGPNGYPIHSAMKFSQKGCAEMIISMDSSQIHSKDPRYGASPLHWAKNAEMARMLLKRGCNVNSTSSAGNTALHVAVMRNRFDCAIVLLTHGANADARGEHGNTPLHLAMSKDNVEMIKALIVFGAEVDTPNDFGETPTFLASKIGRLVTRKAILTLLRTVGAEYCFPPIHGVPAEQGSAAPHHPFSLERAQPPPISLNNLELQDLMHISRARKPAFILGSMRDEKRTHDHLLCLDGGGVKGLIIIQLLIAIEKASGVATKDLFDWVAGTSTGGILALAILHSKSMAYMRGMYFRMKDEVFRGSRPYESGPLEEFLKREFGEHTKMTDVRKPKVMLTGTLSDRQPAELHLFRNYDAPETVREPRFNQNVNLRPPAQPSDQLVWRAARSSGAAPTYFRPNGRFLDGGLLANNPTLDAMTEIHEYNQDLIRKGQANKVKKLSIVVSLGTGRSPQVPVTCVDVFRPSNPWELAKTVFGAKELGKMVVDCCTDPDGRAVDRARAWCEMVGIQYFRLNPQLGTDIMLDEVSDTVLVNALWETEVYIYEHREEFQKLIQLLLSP

human GIVA cPLA2 [3] = biological target: T1, human GIVA cPLA2; conditions: 0.091 mole fraction inhibitor; cited from earlier work
human GV sPLA2 [4] = biological target: T2, human GV sPLA2; conditions: 0.091 mole fraction inhibitor; cited from earlier work

| Structure (SMILES) | GIVA cPLA2 % Inhibition at 0.091 (human GIVA cPLA2 [1]) | GV sPLA2 % Inhibition at 0.091 (human GV sPLA2 [2]) | GVIA iPLA2 % Inhibition at 0.091 (human GVIA iPLA2; 0.091 mole fraction inhibitor) [%] | GVIA iPLA2 XI(50) (human GVIA iPLA2; mole fraction of inhibitor for 50% inhibition) [mole fraction] | GIVA cPLA2 % Inhibition at 0.091 (human GIVA cPLA2 [3]) | GV sPLA2 % Inhibition at 0.091 (human GV sPLA2 [4]) [%] |
| --- | --- | --- | --- | --- | --- | --- |
| COc1ccc(CCCCC(=O)C(F)(F)C(F)(F)F)cc1 [6d, 1,1,1,2,2-Pentafluoro-7-(4-methoxyphenyl)heptan-3-one] | no significant inhibition | no significant inhibition | – | – | – | – |
| O=C(CCCCc1ccccc1)C(F)(F)C(F)(F)F [FKGK11] | – | – | 99.4 | 0.0014 ± 0.0001 | N.D. (N.D. signifies compounds with less than 25% inhibition (or no detectable inhibition)) | 28.0 |
